Counter-ions that a name gives are not always drawn.
Assay: in situ brain/choroid plexus perfusion: CNS uptake of [^3H]-arginine, [^3H]-ADMA and [^14C]-sucrose (multiple-time and single-time uptake analysis)
Details: for Kp at 20 min, 62.5 nM / Kp at 30 min, 62.5 nM / Kp at 10 min, 62.5 nM / Kp at […] / Kp at […], 62.5 nM / Kp at 10 min: male, BALB/c, mouse, 5ml/min; for Kp at 10 min, 62.5 nM / Kp at 10 min: CONTROL; for Kp at […] / Kp at […], 62.5 nM: 2.5 mins
[1] = CSF, Difference (ADMA minus Sucrose), mean
[2] = CSF, [3H] ADMA and [14C] Sucrose uptake, mean
[3] = caudate nucleus, Difference (ADMA minus Sucrose), mean
[4] = caudate nucleus, [3H] ADMA and [14C] Sucrose uptake, mean
[5] = cerebellum, Difference (ADMA minus Sucrose), mean
[6] = cerebellum, [3H] ADMA and [14C] Sucrose uptake, mean
[7] = choroid plexus, Difference (ADMA minus Sucrose), mean
[8] = choroid plexus, [3H] ADMA and [14C] Sucrose uptake, mean
[9] = frontal cortex, Difference (ADMA minus Sucrose), mean
[10] = frontal cortex, [3H] ADMA and [14C] Sucrose uptake, mean
[11] = hippocampus, Difference (ADMA minus Sucrose), mean
[12] = hippocampus, [3H] ADMA and [14C] Sucrose uptake, mean
[13] = hypothalamus, Difference (ADMA minus Sucrose), mean
[14] = hypothalamus, [3H] ADMA and [14C] Sucrose uptake, individual mouse
[15] = hypothalamus, [3H] ADMA and [14C] Sucrose uptake, mean
[16] = occipital cortex, Difference (ADMA minus Sucrose), mean
[17] = occipital cortex, [3H] ADMA and [14C] Sucrose uptake, mean
[18] = pineal gland, Difference (ADMA minus Sucrose), mean
[19] = pineal gland, [3H] ADMA and [14C] Sucrose uptake, mean
[20] = pituitary gland, Difference (ADMA minus Sucrose), mean
[21] = pituitary gland, [3H] ADMA and [14C] Sucrose uptake, mean
[22] = pons, Difference (ADMA minus Sucrose), mean
[23] = pons, [3H] ADMA and [14C] Sucrose uptake, mean
[24] = thalamus, Difference (ADMA minus Sucrose), mean
[25] = thalamus, [3H] ADMA and [14C] Sucrose uptake, individual mouse
[26] = thalamus, [3H] ADMA and [14C] Sucrose uptake, mean

Kp at 20 min, 62.5 nM (CSF, Difference (ADMA minus Sucrose), individual mouse): 0.197
Kp at 20 min, 62.5 nM [1]: 0.225
Kp at 30 min, 62.5 nM [1]: 0.349
Kp at 10 min, 62.5 nM [1]: 0.267
Kp at […] [2]: 0.122
Kp at 20 min, 62.5 nM [2]: 0.433
Kp at 10 min, 62.5 nM [2]: 0.273
Kp at 30 min, 62.5 nM (CSF, uptake into CSF, [3H] ADMA + [14C] Sucrose, Balb/c ♂, mean): 0.721
Kp at […], 62.5 nM [3]: 0.0936
Kp at 20 min, 62.5 nM [3]: 0.256
Kp at […], 62.5 nM [4]: 0.107
Kp at 20 min, 62.5 nM [4]: 0.28
Kp at […] [5]: 0.0947
Kp at 20 min, 62.5 nM [5]: 0.273
Kp at […] [6]: 0.112
Kp at 20 min, 62.5 nM [6]: 0.3
Kp at […], 62.5 nM [7]: 0.671
Kp at 20 min, 62.5 nM [7]: 1.92
Kp at […], 62.5 nM (choroid plexus, [3H] ADMA and [14C] Sucrose uptake, individual mouse): 0.645
Kp at […], 62.5 nM [8]: 0.855
Kp at 20 min, 62.5 nM [8]: 2.24
Kp at […], 62.5 nM (frontal cortex, Difference (ADMA minus Sucrose), individual mouse): 0.0723
Kp at […], 62.5 nM [9]: 0.0986
Kp at 20 min, 62.5 nM [9]: 0.276
Kp at […], 62.5 nM (frontal cortex, [3H] ADMA and [14C] Sucrose uptake, individual mouse): 0.0847
Kp at […], 62.5 nM [10]: 0.113
Kp at 20 min, 62.5 nM [10]: 0.302
Kp at […], 62.5 nM (hippocampus, Difference (ADMA minus Sucrose), individual mouse): 0.0843
Kp at […], 62.5 nM [11]: 0.1
Kp at 20 min, 62.5 nM [11]: 0.254
Kp at […], 62.5 nM (hippocampus, [3H] ADMA and [14C] Sucrose uptake, individual mouse): 0.0898
Kp at […], 62.5 nM [12]: 0.109
Kp at 20 min, 62.5 nM [12]: 0.273
Kp at […] (hypothalamus, Difference (ADMA minus Sucrose), individual mouse): 0.0965
Kp at […] [13]: 0.0993
Kp at 20 min, 62.5 nM [13]: 0.364
Kp at […] [14]: 0.114
Kp at […] [15]: 0.127
Kp at 20 min, 62.5 nM [14]: 0.38
Kp at 20 min, 62.5 nM [15]: 0.416
Kp at […], 62.5 nM (occipital cortex, Difference (ADMA minus Sucrose), individual mouse): 0.0744
Kp at […], 62.5 nM [16]: 0.086
Kp at 20 min, 62.5 nM [16]: 0.268
Kp at […], 62.5 nM (occipital cortex, [3H] ADMA and [14C] Sucrose uptake, individual mouse): 0.083
Kp at […], 62.5 nM [17]: 0.0969
Kp at 20 min, 62.5 nM [17]: 0.293
Kp at […], 62.5 nM [18]: 0.235
Kp at 20 min, 62.5 nM [18]: 0.986
Kp at 30 min, 62.5 nM [18]: 0.416
Kp at 10 min [18]: 1.94
Kp at […], 62.5 nM [19]: 0.527
Kp at 20 min, 62.5 nM [19]: 1.32
Kp at 10 min [19]: 2.56
Kp at 30 min, 62.5 nM (pineal gland, uptake into pineal gland, [3H] ADMA + [14C] Sucrose, Balb/c ♂, mean): 0.614
Kp at […] [20]: 0.585
Kp at 20 min, 62.5 nM [20]: 1.19
Kp at […] [21]: 0.761
Kp at 20 min, 62.5 nM [21]: 1.4
Kp at […] [22]: 0.0907
Kp at 20 min, 62.5 nM [22]: 0.306
Kp at […] (pons, [3H] ADMA and [14C] Sucrose uptake, individual mouse): 0.0924
Kp at […] [23]: 0.117
Kp at 20 min, 62.5 nM [23]: 0.347
Kp at […] (thalamus, Difference (ADMA minus Sucrose), individual mouse): 0.0741
Kp at […] [24]: 0.0969
Kp at 20 min, 62.5 nM [24]: 0.282
Kp at […] [25]: 0.0799
Kp at […] [26]: 0.108
Kp at 20 min, 62.5 nM [25]: 0.331
Kp at 20 min, 62.5 nM [26]: 0.312
CNS-to-blood efflux (multiple-time uptake studies, loss of linearity): presence of CNS-to-blood efflux
Structure (SMILES): CN(C)C(N)=NCCC[C@H](N)C(=O)O [ADMA, N^G,N^G-dimethylarginine dihydrochloride]

From paper PMC11501026, “L-Arginine and asymmetric dimethylarginine (ADMA) transport across the mouse blood-brain and blood-CSF barriers: Evidence of saturable transport at both interfaces and CNS to blood efflux” (PLOS ONE, 2024)
